The values that follow come from patent US20030186967A1, “Acylresorcinol derivatives are selective vitronectin receptor inhibitors” (American Home Products Corporation, priority 1998, published 2003).

Structures are written as SMILES. Counter-ions that a name gives are not always drawn.

For series [1], the system named is thyro-parathyroidectomized (TPTX) rats. Description: PTH-induced hypercalcemia of thyroparathyroidectomized male rats. It is filed as in vivo, rat. The note with it: Rattus norvegicus, 100 mg/kg. As to the method:
Effects of test compounds on PTH-induced hypercalcemia of thyroparathyroidectomized male rats
Male thyro-parathyroidectomized (TPTX) rats (Charles River) were randomly assigned to groups of 7 rats/group. Following a baseline serum calcium determination an Alzet 1003D minipump (Alza Corporation, Palo Alto, Calif.) loaded with 0.3 mg/ml PTH (Bachem, Philadelphia, Pa.) was implanted subcutaneously in each rat. For evaluation of prophylactic effects of a test drug, another minipump with appropriate concentration of the test drug solution was implanted subcutaneously at a site away from PTH minipump. Alternatively, test drugs were administered by oral gavage as a solution or uniform suspension in an appropriate medium depending on the physical properties of the test compound. A group of 7 unimplanted TPTX rats was set aside as a normal control group. Twenty hours after minipump implantation blood was collected from each rat to confirm the presence of hypercalcemia (judged by elevation of serum calcium levels, 2 SD>normal non-implanted level). At various intervals between 0.5 and 24 hours after dosing (usually one to three time points), blood was collected from each rat and the serum evaluated for total calcium. Serum calcium levels were measured using the Nova 7+7 calcium auto analyzer spectrophotometrically using the Sigma test kit (#587A). Test results were determined by the difference in serum calcium between vehicle and treatment group following PTH administration, using a one-way analysis of variance with Dunnett's test or other multiple comparison methods.

Series [2] has as its target T1, αVβ3 integrin (Homo sapiens, UniProt P05106+P06756).
T1 construct: αVβ3-expressing cell lines are maintained by standard tissue culture techniques; endogenous in cells; host or cells: αVβ3-expressing cell lines
Description: Osteopontin-αVβ3 Cell Attachment Assay. Type of series: cell-based. As to the method:
Osteopontin-αVβ3 Cell Attachment Assay The purpose of this assay is to measure the effect of various compounds on the RGD-dependent attachment of cells to osteopontin mediated by the αVβ3 integrin. […] Following the blocking period, wells are aspirated and washed once with D-PBS. Cell Suspension αVβ3-expressing cell lines are maintained by standard tissue culture techniques. […] The cells are pelleted by low-speed centrifugation and washed three times with 0.5 mg/mL trypsin inhibitor in D-PBS (Sigma). The final cell pellet is resuspended in cell suspension media at a concentration of 10^6 cells/mL. Attachment Assay Incubation: […] of diluted test compound is added to osteopontin-coated wells (in triplicate) followed by […] of cell suspension; background cell attachment is determined in uncoated wells. The plate is incubated at 25° C. in a humidified air atmosphere for 1.5 hours. Following the incubation period, the wells are gently aspirated and washed once with D-PBS. Cell Number Detection: The number of cells attached is determined by an MTT dye conversion assay (Promega) according to the manufacturer's instructions. Briefly, MTT dye is diluted in cell suspension media (15:85) and […] is added to each well. […] The assay plates are covered and incubated at 37° C. in a humidified air atmosphere overnight. […] Reference Compounds Various […]

Series [3] relates to osteoclasts. Description: Osteoclast Pitting Assay. The following applies: Osteoclast Pitting Assay; neonatal rat osteoclasts on bovine cortical bone slices; read-out: IC50 (μM) Bone Pitting. It is filed as cell-based, rat. The procedure: The assay is conducted as described in Murrills and Dempster (1990). Briefly, 4×4×0.2 mm slices of devitalized bovine cortical bone are numbered, placed in the wells of 96-well culture plates and wetted with 100 ul of Medium 199 containing Hanks salts, 10 mM HEPES, pH 7.0 (Medium 199/Hanks). Bone cell suspensions containing osteoclasts are prepared by mincing the long bones of neonatal rats (Sprague-Dawley, 4-6 days old) in Medium 199/Hanks. 100 uL of the suspension is then plated onto each slice and incubated 30 minutes to allow osteoclasts to adhere. The slices are rinsed to remove non-adherent cells and incubated 24 h in Medium 199 containing Earle's salts, 10 mM HEPES and 0.7 g/L NaHCO3, which equilibrates at pH 6.9 in a 5% CO2 atmosphere. At this pH the adherent osteoclasts excavate an adequate number of resorption pits for assay purposes. Slices are fixed in 2.5% glutaraldehyde and osteoclasts counted following tartrate-resistant acid phosphatase staining. […] All cells are stripped from the slice by sonication on 0.25M NH4OH and the resorption pits formed by the osteoclasts during the experiment stained with toluidine blue. Resorption pits are quantified by manually counting.
The experiments are conducted according to a block design with osteoclasts from each animal exposed to each treatment. Three replicate slices are used per treatment per animal, such that a total of 96 slices are examined for an experiment involving four animals and eight treatments (including control). Several parameters are recorded on a “per slice” basis: number of pits, number of osteoclasts, number of pits per osteoclast, number of fibroblast-like bone cells. SAS or JMP statistical software is used for statistical analysis. […] IC50s are calculated for active compounds using dose-response curves.
Reference Compound: Rat calcitonin.
Osteoclasts are responsible for the bone loss that occurs in the onset of osteoporosis and anti-resorptive drugs directed against the osteoclast are a requirement for patients losing bone.

Usually inhibition in vivo stands for the drop in the measured response relative to a control, in per cent. A word on the IC50: it is the midpoint of a concentration-inhibition curve. For orientation: melting point means the temperature of the solid-liquid transition.

T1 sequence (P06756 31-889 limits assumed): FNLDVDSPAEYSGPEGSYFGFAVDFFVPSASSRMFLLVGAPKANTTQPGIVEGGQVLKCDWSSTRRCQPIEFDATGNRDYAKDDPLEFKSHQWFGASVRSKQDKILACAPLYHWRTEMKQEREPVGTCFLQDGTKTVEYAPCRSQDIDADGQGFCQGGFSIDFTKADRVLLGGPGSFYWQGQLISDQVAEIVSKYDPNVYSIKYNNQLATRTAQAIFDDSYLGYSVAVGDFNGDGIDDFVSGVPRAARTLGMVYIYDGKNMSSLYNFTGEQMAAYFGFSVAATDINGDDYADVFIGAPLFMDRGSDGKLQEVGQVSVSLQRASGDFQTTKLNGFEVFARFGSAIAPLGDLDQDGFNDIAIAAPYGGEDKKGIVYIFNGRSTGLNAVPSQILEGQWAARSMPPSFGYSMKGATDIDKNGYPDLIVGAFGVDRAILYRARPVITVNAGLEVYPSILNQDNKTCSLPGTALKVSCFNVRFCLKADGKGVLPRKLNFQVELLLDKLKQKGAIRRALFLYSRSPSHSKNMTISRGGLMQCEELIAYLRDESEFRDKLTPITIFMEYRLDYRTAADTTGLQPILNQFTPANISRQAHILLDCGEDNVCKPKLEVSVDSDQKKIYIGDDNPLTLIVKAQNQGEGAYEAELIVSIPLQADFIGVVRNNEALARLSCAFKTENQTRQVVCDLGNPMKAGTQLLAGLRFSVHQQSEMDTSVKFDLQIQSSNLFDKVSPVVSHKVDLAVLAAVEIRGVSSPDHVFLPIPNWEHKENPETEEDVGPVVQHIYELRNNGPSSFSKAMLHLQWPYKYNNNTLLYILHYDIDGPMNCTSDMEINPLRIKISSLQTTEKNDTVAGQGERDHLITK
T1 sequence (P06756 891-1048 partner limits assumed): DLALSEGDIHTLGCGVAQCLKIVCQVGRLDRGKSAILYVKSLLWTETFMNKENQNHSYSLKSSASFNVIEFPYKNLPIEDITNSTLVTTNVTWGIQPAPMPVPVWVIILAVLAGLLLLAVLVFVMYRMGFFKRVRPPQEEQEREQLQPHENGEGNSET
T1 sequence (P05106 27-788): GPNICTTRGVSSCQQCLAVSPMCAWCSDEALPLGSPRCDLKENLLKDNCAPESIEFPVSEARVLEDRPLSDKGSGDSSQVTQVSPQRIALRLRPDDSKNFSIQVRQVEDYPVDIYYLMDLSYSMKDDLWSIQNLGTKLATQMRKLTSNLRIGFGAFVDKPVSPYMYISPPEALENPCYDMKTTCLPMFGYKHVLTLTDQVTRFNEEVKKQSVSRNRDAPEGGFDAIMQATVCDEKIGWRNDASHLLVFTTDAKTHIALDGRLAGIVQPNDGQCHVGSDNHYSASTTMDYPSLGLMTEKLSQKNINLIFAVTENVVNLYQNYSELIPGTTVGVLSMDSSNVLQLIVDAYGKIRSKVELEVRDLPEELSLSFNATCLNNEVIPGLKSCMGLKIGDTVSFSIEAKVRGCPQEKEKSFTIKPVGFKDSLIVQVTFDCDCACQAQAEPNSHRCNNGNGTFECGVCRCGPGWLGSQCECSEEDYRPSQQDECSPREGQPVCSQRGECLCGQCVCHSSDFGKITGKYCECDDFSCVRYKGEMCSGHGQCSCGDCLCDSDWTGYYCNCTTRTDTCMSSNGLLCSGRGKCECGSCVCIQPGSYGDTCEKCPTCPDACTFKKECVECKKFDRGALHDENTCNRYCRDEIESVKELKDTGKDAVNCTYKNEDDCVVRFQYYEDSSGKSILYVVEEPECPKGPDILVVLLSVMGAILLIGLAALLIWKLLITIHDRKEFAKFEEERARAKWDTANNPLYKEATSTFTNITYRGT

In the case of `CCOC(=O)[C@H](CNC(=O)c1ccc(OCCNC2=NCCCN2)cc1O)NS(=O)(=O)c1ccccc1` [Example 276, hydrochloride], the inhibition in vivo at 100 mg/kg in series [1] (sc) was 170%. For the same compound, the figures for the IC50 in series [2] and in series [3] were 0.12 µM and 0.15 µM, respectively.

Turning to `CCOC(=O)[C@H](CNC(=O)c1ccc(OCCNC2=NCCCN2)cc1O)NC(=O)OCc1ccccc1` [Example 277, 2(S)-Benzyloxycarbonylamino-3-[2-hydroxy-4-[2-(3,4,5,6-tetra-hydropyrimidin-2-ylamino)ethoxy]benzoylamino]propionic acid ethyl ester hydrochloride], the results for the inhibition in vivo at 100 mg/kg in series [1] (po) and in series [1] (sc) were 79% and 86%, respectively. Moreover, the values for the IC50 in series [2] and in series [3] were 0.05 µM and 0.4 µM, respectively.

For `CCOC(=O)[C@H](CNC(=O)c1ccc(OCCNc2ncccn2)cc1O)NC(=O)OCc1ccccc1` [Example 299, 2(S)-Benzyloxycarbonylamino-3-[2-hydroxy-4-[2-(pyrimidin-2-ylamino)ethoxy]-benzoylamino]propionic acid ethyl ester hydro-chloride], the melting point was in the range of 124 to 125 °C. Further, the inhibition in vivo at 100 mg/kg in series [1] (po) was 102%. Moreover, the “IC50 (μM) Cell” value in series [2] was “inactive @ 100”. The IC50 in series [3] came out at 1.9 µM.
